Measured values taken from patent US20060153931A1, “Prevention of flap necrosis in plastic surgery” (priority 2001, published 2006).
Ends that are not written are not given here.

Assays:
[1] = system: skin flaps based on the epigastric artery and vein; assay: Rat epigastric skin flap model, ET-1 induced pedicle vasoconstriction (Background Example 1); format: in vivo, rats
[2] = system: free tissue transfer of forearm tissues to the face; conditions: human, in vivo
[3] = system: coronary artery bypass grafts; assay: Patient with coronary artery bypass, vasospasm of the grafts (Example II); format: in vivo, human
[4] = system: pedicle flap; conditions: 30 minutes after lidocaine application, topical to pedicle; cited from earlier work
[5] = system: headache; format: in vivo; conditions: oral capsules each containing 100 mg aspirin and 200 mg of CX—NO
Experimental: CX—NO of Example 14 of U.S. Pat. No. 6,403,759 is formulated in a gel at 50 mM and is admixed with aspirin and the combination used to fill capsules each containing 100 mg aspirin and 200 mg of CX—NO. […] Alternatively, the CX—NO is used as or included in a coating for aspirin tablets (100 mg aspirin in a tablet), and administration orally of the coated aspirin provides the same result.

[6] = system: island skin flaps based upon the epigastic artery and vein; assay: Rat island skin flap model, ET-1 induced vasoconstriction, CX—NO (Background Example 2); format: in vivo, rats; conditions: 0.25 ml of 3.17 mM CX—NO in DMSO, 15 min after ET-1, FIG. 1
[7] = 30 min after application, 2% lidocaine or 10^−4M ENO, 15 min after ET-1, mean±SEM
[8] = addition of 100 μM ethyl nitrite after lidocaine (2%)
[9] = topical 10^−5 M ET-1 on pedicle

Compound: CCON=O [ENO, ethyl nitrite]
- overall effect on arterial dilation and blood flow (in words) ([1]; 2% lidocaine vs 10^−4M ENO): longer lasting and greater effect
- time after application from which restoration of arterial diameter is greater compared to lidocaine (p<0.05) ([1]; 10^−4M ENO vs 2% lidocaine): 10 min
- time after application from which restoration of blood flow is greater compared to lidocaine (p<0.05) ([1]; 10^−4M ENO vs 2% lidocaine): 13 min
- arterial diameter ([1]; 1 min after application (lidocaine: within 1 min), 2% lidocaine or 10^−4M ENO, 15 min after ET-1, mean±SEM): 83±5 % of baseline
- flap blood flow ([1]; 2 min after application, 2% lidocaine or 10^−4M ENO, 15 min after ET-1, laser Doppler, mean±SEM): 62±6 % of baseline
- flap blood flow ([1]; 30 min after application, 2% lidocaine or 10^−4M ENO, 15 min after ET-1, laser Doppler, mean±SEM): 86±10 % of baseline
- arterial diameter [1, 7]: 98±5 % of baseline
- vein diameter [1, 7]: 75±5 % of baseline
- vasodilation and blood flow after vasospasm [2]: vasodilation and flow is restored
- EKG (ischemia) [3, 8]: normalized EKG
- blood flow in grafts [3, 8]: restored flow

Compound: CC(N=O)(S(C)(=O)=O)S(C)(=O)=O [compound (1)]
- vasodilation and blood flow after vasospasm [2]: same result

Compound: CCN(CC)CC(=O)Nc1c(C)cccc1C [lidocaine, reference compound]
- blood flow in grafts ([3]; topical lidocaine (2%)): temporary but marginal blood flow
- effect on vasoconstriction / blood flow, decreasing to % of baseline [4]: ≤ 50 % of baseline

Compound: ET-1: Endothelin-1, applied topically to induce pedicle vasoconstriction (CSCSSLMDKECVYFCHLDIIW; ends and bridges not checked; cysteine pairing not given here; UniProt P05305 53-73, looked up) [reference compound]
- vasoconstriction of the epigastric artery [1, 9]: 69-76%
- vasoconstriction of the epigastric vein [1, 9]: 43-72%
- reduction of flap blood flow to % of baseline ([1]; topical 10^−5 M ET-1 on pedicle, laser Doppler): 35-45 % of baseline

Compound: O— and S-nitrosylated β-cyclodextrin
- headache relief [5]: relieved headache

Compound: nitrosylated polythiolated cyclodextrin [CX—NO]
- arterial diameter as a percentage of baseline [6]: increase
- vein diameter as a percentage of baseline [6]: increase
- blood flow in small vessels as a percentage of baseline flow ([6]; laser Doppler): increase
